| SMILES | melting point [°C] |
| --- | --- |
| Nc1n[nH]c2cccc(C(F)(F)F)c12 | 129 to 130 |
| CC(CSC(=S)N(C)C)[N+](=O)[O-] (stereo not given) | 38.5 to 41 |
| CN(C)C1CCN(S(=O)(=O)c2cc(C#N)ccc2Sc2cc(Cl)ccc2Cl)CC1 | 140 to 143 |
| Cc1ccc2[nH]c(=S)c(C(=O)c3ccc([N+](=O)[O-])cc3)c(O)c2c1 | 247 |
| C#CC(C)N1CCNC1=O (stereo not given) | 90 to 92 |
| CC(C)[C@H](NC(=O)N(C)Cc1cscn1)C(=O)N[C@@H](Cc1ccccc1)C[C@H](O)[C@H](Cc1ccccc1)NC(=O)[C@@H](NC(=O)N(C)Cc1cscn1)C(C)C | 154 to 156 |
| O=S(=O)(Nc1cc(C(F)(F)F)ccc1Oc1ccccc1CO)c1cc(C(F)(F)F)cc(C(F)(F)F)c1 | 123 to 125 |
| O=S1CCN(CC2CN=C(c3cc4cccc(NS(=O)(=O)c5ccccn5)c4[nH]3)S2)CC1 (stereo not given) | 270 |
| Cc1ccc(N2CCN(Cc3n[nH]c4ccccc34)CC2)cc1 | 176 to 177 |
| CCCCOc1c(CNC(=O)OC(C)(C)C)n(CC(C)C)c(=O)c2ccc(-c3nc(C(=O)OCC)cs3)cc12 | 172 |
| Cc1[nH]c(C(=O)N2CCC(C(=O)O)CC2)c(C)c1-c1nc2ccc(C(=O)c3ccccc3)cc2[nH]1 | 267 to 271 |
| CCC(C)(O)C1(c2cccc(OC)c2)CCN(C)CC1 (stereo not given) | 134 to 135 |
| CCCCOc1cc(CCS(=O)(=O)NC(=O)OCC(C)(C)C)n(Cc2ccc(Cl)cc2Cl)n1 | 116 to 118 |
| CC(C)(C)C(=O)Nc1ccc2oc3c(c2c1)CCCC3 | 210 to 211 |
| Cn1cncc1C(O)(c1ccc(C=O)cc1)c1ccc2c(c1)c(-c1cccc(Cl)c1)cc(=O)n2C (stereo not given) | 208 |
| Nc1nc(=O)n(C2CC(O)C(CO)O2)cc1F (stereo not given) | 199 to 201 |
| O=C(c1cccs1)c1cnn2c(-c3cccc(F)c3)ccnc12 | 235 to 237 |
| CCN(CC)C(=O)Nc1ccc(S(=O)(=O)N2C(=O)C(NCCO)(c3ccccc3Cl)c3cc(Cl)ccc32)cc1 (stereo not given) | 192 to 193 |
| COc1ccc(CCNc2ncnc3c(F)ccc(F)c23)cc1C | 162 to 169 |
| CC(C)(C)OC(=O)c1ncn2c1[C@@H]1CC=CN1C(=O)c1c(Cl)cccc1-2 | 235 to 237 |
| CCCCc1nc(C(O)C(C)(C)C)c(C#N)n1Cc1ccc(-c2ccccc2-c2nnnn2C(c2ccccc2)(c2ccccc2)c2ccccc2)cc1 (stereo not given) | 134 to 135 |
| Cc1ccc(S(=O)(=O)N2C=Cc3cccc(-n4cccc4)c3C2C#N)cc1 (stereo not given) | 160 |

| SMILES | melting point [°C] |
| --- | --- |
| CC1(C)CCC2=C(C1=O)C(c1ccc(F)c(Br)c1)C1=C(COCC1=O)N2 (stereo not given) | > 260 |
| Cc1cccc2c1C1(COc3cc4c(cc31)OCO4)C(=O)N2Cc1ccc(C(F)(F)F)o1 (stereo not given) | 117 to 119 |
| CCCCCCCCn1sc(Cl)c(Cl)c1=O | 44 to 47 |
| c1ccc(-c2ccc3nc4c(nc3c2)-c2cccc3cccc-4c23)cc1 | 194 to 195 |
| Nc1cc(=O)n(Cc2ccccc2)c(=O)n1-c1cccc([N+](=O)[O-])c1 | 256 to 260 |
| N#CC1Sc2ccccc2N1C(=O)c1ccc(Cl)cc1 (stereo not given) | 115 to 117 |
| CC(C)(C)OC(=O)N[C@@H](Cc1cc(F)cc(F)c1)[C@H](O)CO | 122 |
| Cc1nnc(-c2ccc3ncn(-c4cc(C(F)(F)F)ccc4Cl)c3c2)o1 | 211 to 212 |
| Cc1cc(-c2ncn3c(C(F)(F)F)cc(-c4ccc(Cl)cc4)nc23)ccn1 | 232 |
| COc1cccc(OC)c1Cc1c(Cl)ncnc1Cl | 152 to 153 |
| C1c2c(-c3nn[nH]n3)n[nH]c2[C@@H]2C[C@H]12 | 231 |
| O=[N+]([O-])c1cc(-c2csc(-c3cccnc3)n2)cc(O)c1O | 279 to 281 |
| CC(C)(C)C(=O)C(Br)C(c1ccc(Cl)cc1)S(=O)(=O)c1ccccc1 (stereo not given) | 167 to 168 |
| NC1=CN(Cc2ccc(Cl)cc2)CN=C1 | 128 to 129 |
| Cc1c2n(c3ccccc13)C(=O)N(C(C)c1ncn(C(c3ccccc3)(c3ccccc3)c3ccccc3)c1C)CC2 (stereo not given) | 71 to 76 |
| CC(C)(C)Nc1c(NCc2ccccc2C(F)(F)F)c(=O)c1=O | 237 to 239 |
| N#Cc1cc2c(nc1NC1CCCCC1)CCCC2=O | 143 to 145 |
| CC1(C)C=Cc2cc(-c3nnnn3CCN3C(=O)c4ccccc4C3=O)ccc2O1 | 178 to 182 |
| Cc1c(-c2cnco2)[nH]c(=O)c2c1ccc1nc(Nc3c(Cl)cccc3Cl)n(C)c12 | > 300 |
| CCOC(=O)C1CC(=O)C(NC(C)=O)=C(O)C1 (stereo not given) | 112 to 114 |
| CCCCCCCCCCCCc1cc(CC(=O)Nc2c(OC)cc(OC)cc2OC)on1 | 107 to 109 |

Next, values leading:

| melting point [°C] | SMILES |
| --- | --- |
| 55 to 57 | O=[N+]([O-])c1ccc(OCC=CCBr)c([N+](=O)[O-])c1 |
| 198 to 200 | CC(C)(C)OC(=O)N1CCN(c2ccc3oc(C(N)=O)cc3c2)CC1 |
| 82.1 to 83.4 | O=C(CCl)C1=NOC(c2c(F)cccc2F)C1 (stereo not given) |
| 208 to 209 | C=CCNC(=O)Cn1c(-c2ccc(Cl)cc2)nc2cccnc21 |
| 181 to 182 | CC(=O)c1cc(-c2ccccc2)c(=O)n2c1-c1ccsc1CC2 |
| 206 to 207 | C=CCOC(=O)Nc1ccc(C2=NNC(=O)CC2C)cc1 (stereo not given) |
| 74 | c1coc(CCCCCCOc2ccc(C3=NCCO3)cc2)c1 |
| 128 | CCC1(COc2ccc(C=CC(=O)O)cc2)COC1 |
| 57 to 60 | CON=C(CBr)c1ccc(Cl)cc1 |
| 90 to 92 | COCC(COc1noc2ccc(Cl)cc12)NC=O (stereo not given) |
| 204 | CCC(=O)OC(CC)c1nc2c(C(F)(F)F)cccc2c(O)c1C(=O)Nc1ccccn1 (stereo not given) |
| 147 to 148 | CC(C)CC1(C(CCNC(=O)c2ccc(F)c(F)c2)C(=O)OC(C)(C)C)CCN(CCc2ccccc2)C1=O (stereo not given) |
| 155 to 156 | COc1ccc(Cl)cc1C(=O)N(CCCC(=O)O)c1ccc(OC)c(-c2ccccc2)c1 |
| 140 | CC(c1ccc(C=Cc2ccccc2)o1)N(O)C(N)=O (stereo not given) |
| 105 | CCOC(=O)c1cccc(OCCCC2CCN(c3ccc(Cl)nn3)CC2)c1 |
| 104 to 105 | Cc1cc(C)cc(OCC(=O)c2ccccc2)c1 |
| 154 to 156 | CC(=NO)c1ccc(C2=CCCCC2)cc1 |
| 158 to 160 | O=C1CCC(N2C(=O)c3cccc(NCCOCc4ccccc4)c3C2=O)C(=O)N1 (stereo not given) |
| 130 to 132 | CCCn1c2cc(C)ccc2c2oc(C(=O)Cl)cc21 |
| 107 to 108 | CNC(=O)c1cc(-c2ccc(OC)cc2)nn(CC2CCCC2)c1=O |
| 159 to 160 | C=CCOc1ccccc1OCC(O)CNC1CCC(NC(=O)NCC)CC1 (stereo not given) |
| 123 to 125 | O=C1CCc2cccc(Oc3ccccc3Cl)c2O1 |
| 169 to 170 | COc1ccc(CSc2nc(O)cc(C(F)(F)F)n2)cc1 |
| > 260 | O=C(Nc1cccc2[nH]ccc12)c1cc([N+](=O)[O-])ccc1O |
| 184 to 187 | COCS(=O)(=O)c1ccc(C(CC2CCCC2)C(=O)O)cc1 (stereo not given) |
| 209 | CC(=O)N[C@@H](Cc1c[nH]c2ccc(O)cc12)C(=O)O |
| 86 to 90 | CCOC(=O)c1cccc(N2C(=O)C=CC2=O)c1C(=O)OCC |
